The text below walks through data of PMC8073005, “Antifungal Activity and DNA Topoisomerase Inhibition of Hydrolysable Tannins from Punica granatum L” (International Journal of Molecular Sciences, 2021).

By IC50 is commonly meant the point on the concentration scale where inhibition reaches its midpoint.

Molecules are shown by their SMILES.

Experiment [1] deals with Alternaria alternata AL19. The experiment in a line: MIC, micro-spectrophotometric growth assay (phytopathogens). In kind it is cell-based. The following applies: Alternaria alternata AL19; PDB, 24 °C, dark; imazalil at label dose; read-out: Minimum inhibitory concentration (MIC).
Experiment [2] concerns Botrytis cinerea B2. Described as above. In kind it is cell-based. The following applies: Botrytis cinerea B2; PDB, 24 °C, dark; imazalil at label dose; read-out: Minimum inhibitory concentration (MIC).
Experiment [3] relates to Colletotrichum acutatum s.s. M146-2. Described as above. In kind it is cell-based, Colletotrichum acutatum sensu stricto.
The test system of experiment [4] is Coniella granati M0_C2. The experiment is described as above. Type of experiment: cell-based.
Experiment [5] relates to Candida albicans ATCC 10321. The experiment is described as follows: MIC, broth microdilution (human pathogens). Type of experiment: cell-based. The following applies: Candida albicans, ATCC10321, 48 h, read-out: Minimum inhibitory concentration (MIC). (In broth dilution the organism is exposed to a series of concentrations in liquid medium.)
Experiment [6] concerns Candida albicans SC 5314. The experiment in a line: MIC, broth microdilution (human pathogens). In kind it is cell-based. To be noted: Candida albicans, SC5314, 48 h, read-out: Minimum inhibitory concentration (MIC).
The subject of experiment [7] is Candida albicans 1. The experiment in a line: MIC, broth microdilution (human pathogens). Type of experiment: cell-based. The following applies: Candida albicans, 1, 48 h, read-out: Minimum inhibitory concentration (MIC).
The subject of experiment [8] is Candida albicans 2. The experiment in a line: MIC, broth microdilution (human pathogens). Type of experiment: cell-based. To be noted: Candida albicans, 2, 48 h, read-out: Minimum inhibitory concentration (MIC).
Experiment [9] concerns Candida albicans H. The experiment in a line: MIC, broth microdilution (human pathogens). In kind it is cell-based. The following applies: Candida albicans, 48 h, read-out: Minimum inhibitory concentration (MIC).
Experiment [10] relates to Candida albicans 40. The experiment in a line: MIC, broth microdilution (human pathogens). To be noted: Candida albicans, 40, 48 h, read-out: Minimum inhibitory concentration (MIC). In kind it is cell-based.
Experiment [11] has as its system Candida albicans 41. The experiment in a line: MIC, broth microdilution (human pathogens). Type of experiment: cell-based. The following applies: Candida albicans, 41, 48 h, read-out: Minimum inhibitory concentration (MIC).
Experiment [12] deals with Candida albicans 44. The experiment is described as follows: MIC, broth microdilution (human pathogens). Type of experiment: cell-based. The following applies: Candida albicans, 44, 48 h, read-out: Minimum inhibitory concentration (MIC).
In experiment [13] the test system is Candida parapsilosis. The experiment in a line: MIC, broth microdilution (human pathogens). Type of experiment: cell-based. The following applies: Lodderomyces parapsilosis, 48 h, read-out: Minimum inhibitory concentration (MIC).
The subject of experiment [14] is Candida parapsilosis 7. The experiment is described as follows: MIC, broth microdilution (human pathogens). In kind it is cell-based. To be noted: Lodderomyces parapsilosis, 7, 48 h, read-out: Minimum inhibitory concentration (MIC).
In experiment [15] the test system is Candida zeylanoides 33. The experiment is described as follows: MIC, broth microdilution (human pathogens). In kind it is cell-based. To be noted: Dujonia zeylanoides, 33, 48 h, read-out: Minimum inhibitory concentration (MIC).
The subject of experiment [16] is Saccharomyces cerevisiae 42. The experiment in a line: MIC, broth microdilution (human pathogens). Type of experiment: cell-based. To be noted: Saccharomyces cerevisiae, 42, 48 h, read-out: Minimum inhibitory concentration (MIC).
The test system of experiment [17] is Aspergillus brasiliensis ATCC 16404. The experiment in a line: MIC, broth microdilution (human pathogens). To be noted: Aspergillus brasiliensis, ATCC16404, 48 h, read-out: Minimum inhibitory concentration (MIC). Type of experiment: cell-based.
Experiment [18] concerns Aspergillus candidus 3. The experiment is described as follows: MIC, broth microdilution (human pathogens). In kind it is cell-based. To be noted: Aspergillus candidus, 3, 48 h, read-out: Minimum inhibitory concentration (MIC).
Experiment [19] has as its system Aspergillus candidus 25. The experiment is described as follows: MIC, broth microdilution (human pathogens). Type of experiment: cell-based. The following applies: Aspergillus candidus, 25, 48 h, read-out: Minimum inhibitory concentration (MIC).
For experiment [20], the system named is Cryptococcus neoformans B 3501. The experiment is described as follows: MIC, broth microdilution (human pathogens). Type of experiment: cell-based. To be noted: Cryptococcus neoformans, B3501, 48 h, read-out: Minimum inhibitory concentration (MIC).
For experiment [21], the system named is Cryptococcus neoformans ATCC 11240. The experiment in a line: MIC, broth microdilution (human pathogens). In kind it is cell-based. The following applies: Cryptococcus neoformans, ATCC11240, 48 h, read-out: Minimum inhibitory concentration (MIC).
The test system of experiment [22] is Cryptococcus 67. The experiment in a line: MIC, broth microdilution (human pathogens). Type of experiment: cell-based. To be noted: Cryptococcus, 67, 48 h, read-out: Minimum inhibitory concentration (MIC).
Experiment [23] has as its system Cryptococcus var. grubii H99 serotype A. The experiment is described as follows: MIC, broth microdilution (human pathogens). The following applies: Cryptococcus, 48 h, read-out: Minimum inhibitory concentration (MIC). Type of experiment: cell-based.
For experiment [24], the target named is T1, topoisomerase I from Candida albicans (Candida albicans, UniProt Q00313).
T1 sequence (Q00313 1-778): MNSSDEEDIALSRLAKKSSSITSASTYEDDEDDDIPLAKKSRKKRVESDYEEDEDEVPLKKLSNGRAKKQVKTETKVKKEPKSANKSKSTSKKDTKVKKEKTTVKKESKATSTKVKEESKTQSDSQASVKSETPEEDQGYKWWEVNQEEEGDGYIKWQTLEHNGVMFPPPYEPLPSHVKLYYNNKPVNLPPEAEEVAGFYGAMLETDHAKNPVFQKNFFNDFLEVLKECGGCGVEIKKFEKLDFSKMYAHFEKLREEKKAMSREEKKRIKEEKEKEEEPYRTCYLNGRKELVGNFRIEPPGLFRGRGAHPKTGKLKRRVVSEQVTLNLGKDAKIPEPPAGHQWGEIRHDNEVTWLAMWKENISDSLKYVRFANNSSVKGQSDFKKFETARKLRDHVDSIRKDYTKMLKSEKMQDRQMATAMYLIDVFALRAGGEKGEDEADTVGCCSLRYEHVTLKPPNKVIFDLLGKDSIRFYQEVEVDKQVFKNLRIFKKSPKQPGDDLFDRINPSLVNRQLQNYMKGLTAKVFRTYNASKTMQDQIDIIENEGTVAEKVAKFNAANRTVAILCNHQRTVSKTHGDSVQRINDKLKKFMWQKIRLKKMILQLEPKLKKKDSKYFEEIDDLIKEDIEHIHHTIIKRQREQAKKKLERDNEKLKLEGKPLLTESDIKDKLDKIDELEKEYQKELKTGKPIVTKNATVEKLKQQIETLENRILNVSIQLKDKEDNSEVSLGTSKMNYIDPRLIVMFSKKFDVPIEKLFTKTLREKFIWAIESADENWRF
The experiment is described as follows: Topoisomerase I supercoiled DNA relaxation inhibition. Type of experiment: biochemical.

Experiment [25] deals with Candida strains. The experiment in a line: Agar Disk Diffusion Assay, Candida strains. Type of experiment: cell-based. The following applies: 100 µg.
The test system of experiment [26] is other genera tested (other fungi strains). The experiment in a line: Agar Disk Diffusion Assay, other genera. In kind it is cell-based. The following applies: 100 µg. How it is done:
The antifungal activity of pomegranate compounds was evaluated against 19 clinically isolated fungal strains, including nine belonging to Candida albicans species, two belonging to Aspergillus genus, one belonging to Cryptococcus genus, and one Saccharomyces cerevisiae. The C. albicans strains were isolated on CHROMID agar, Aspergillus and Cryptococcus genus were isolated on SDA-CAF and one Saccharomyces cerevisiae on SDA. All the isolates were confirmed by matrix-assisted laser desorption ionization (MALDI) time-of-flight mass spectrometry (TOF/MS). Strains from the American Type Culture Collection (ATCC) were included. All strains were maintained in SDB with 20% (w/v) glycerol at −80 °C until use and sub-cultured in SDA before each test.
The preliminary determination of the antifungal activity of the target compounds (punicalagin, punicalin, ellagic acid, and gallic acid) from pomegranate was carried out by means of the agar disk diffusion assay, according to the standard procedure of the Clinical and Laboratory Standards Institute, with slight modifications. Plates containing SDA were uniformly spread with 100 μL of 10^3 conidia/mL of each strain suspension. […] Disks containing fluconazole (25 μg), amphotericin B (25 μg) and DMSO (20 μL) were used as the positive and the negative control, respectively. The antifungal activity of pomegranate compounds was evaluated by measuring the diameter of the clear inhibition zone formed right around the disks after 48 h incubation at 30 ± 1 °C. The experiment was carried out in triplicate.

The test system of experiment [27] is Candida albicans SC 5314. The experiment in a line: Time-kill curves. In kind it is cell-based. The following applies: C. albicans SC 5314; compound at its MIC value; 0–96 h.
Experiment [28] deals with C. albicans 1 (clinically isolated strain). The experiment is described as follows: Time-kill curves. The following applies: compound at its MIC value, 0–96 h. Type of experiment: cell-based, Candida albicans.
Experiment [29] has as its target DNA topoisomerase I. Also on record: method as in PMID 1324981. The following applies: reported; cited from earlier work.

With `O=C1O[C@H]2[C@@H]3OC(=O)c4cc(O)c(O)c(O)c4-c4c(O)c(O)c5oc(=O)c6c(c(O)c(O)c7oc(=O)c4c5c76)-c4c(cc(O)c(O)c4O)C(=O)OC[C@H]3OC(O)[C@@H]2OC(=O)c2cc(O)c(O)c(O)c2-c2c1cc(O)c(O)c2O` (mixture of isomers) [Punicalagin, punicalagin], the MIC in [1] turned out to be 92.2 µM; in [2], 92.2 µM; in [3] (Colletotrichum acutatum s.s. M146-2, PDB, 24 °C, dark, imazalil at label dose, read-out: Minimum inhibitory concentration (MIC)), 184.4 µM; in experiment [4] (Coniella granati M0_C2, PDB, 24 °C, dark, imazalil at label dose, read-out: Minimum inhibitory concentration (MIC)), 184.4 µM; in experiment [5], 0.7 µM; in experiment [6], 0.7 µM. Moreover, the MIC in experiment [7] was determined as 1.4 µM; in experiment [8], 1.4 µM; in [9], 92.2 µM; in experiment [10], 5.5 µM; in experiment [11], 92.2 µM; in [12], 92.2 µM. Moreover, the MIC in experiment [13] is 0.7 µM; in experiment [14] it was 5.5 µM; in experiment [15], 92.2 µM; in experiment [16], 1.4 µM; in [17] it was 2.8 µM; in experiment [18] it was 92.2 µM. Moreover, the MIC in experiment [19] was found to be 92.2 µM; in experiment [20], 46.1 µM; in experiment [21], 23 µM; in [22], 92.2 µM; in experiment [23], 92.2 µM. In addition, the growth reduction in experiment [3] (C. acutatum s.s., at 48 h) is 66%; in experiment [4] (C. granati, 48 h of incubation), 83%. Further, in experiment [24], the IC50 came to 9 ± 1.2 µM. For the same molecule, the “share of Candida strains with inhibition zone from 21 to 30 mm” value in experiment [25] is recorded as 82%. Further, in experiment [26], the “share of other genera tested with inhibition zone from 21 to 30 mm” value came out at 63%. Moreover, the “time-kill curve (susceptibility time-course)” value in [27] was “major reduction in the number of C. albicans SC 5314 cells”; in [28], “preserved the antifungal activity until the end of the test (96 h)”.

For `O=C(O)C[C@@H]1C(=O)O[C@H]2[C@@H]3OC(=O)c4cc(O)c(O)c(O)c4-c4c(cc(O)c(O)c4O)C(=O)OC[C@H]2O[C@@H](OC(=O)c2cc(O)c(O)c(O)c2)[C@@H]3OC(=O)c2cc(O)c(O)c3c2[C@H]1[C@H](O)C(=O)O3` [CHEMBL525240, Chebulagic acid], the IC50 in [29] was 0.05 µM.
